In ChEMBL document CHEMBL1201862, “PubChem BioAssay data set” (2004):
The source made the active and inactive calls.

Key:
[1] = biological target: T1, Eukaryotic translation initiation factor 2-alpha kinase 3 (Homo sapiens, UniProt Q9NZJ5); experiment: Counterscreen assay for PERK inhibitors: Dose response cell-based high throughput screening assay to measure inhibition of PERK at 6 hours. [Related pubchem assays: 1522, 1416 ]; assay type: functional
T1 sequence (Q9NZJ5 whole entry): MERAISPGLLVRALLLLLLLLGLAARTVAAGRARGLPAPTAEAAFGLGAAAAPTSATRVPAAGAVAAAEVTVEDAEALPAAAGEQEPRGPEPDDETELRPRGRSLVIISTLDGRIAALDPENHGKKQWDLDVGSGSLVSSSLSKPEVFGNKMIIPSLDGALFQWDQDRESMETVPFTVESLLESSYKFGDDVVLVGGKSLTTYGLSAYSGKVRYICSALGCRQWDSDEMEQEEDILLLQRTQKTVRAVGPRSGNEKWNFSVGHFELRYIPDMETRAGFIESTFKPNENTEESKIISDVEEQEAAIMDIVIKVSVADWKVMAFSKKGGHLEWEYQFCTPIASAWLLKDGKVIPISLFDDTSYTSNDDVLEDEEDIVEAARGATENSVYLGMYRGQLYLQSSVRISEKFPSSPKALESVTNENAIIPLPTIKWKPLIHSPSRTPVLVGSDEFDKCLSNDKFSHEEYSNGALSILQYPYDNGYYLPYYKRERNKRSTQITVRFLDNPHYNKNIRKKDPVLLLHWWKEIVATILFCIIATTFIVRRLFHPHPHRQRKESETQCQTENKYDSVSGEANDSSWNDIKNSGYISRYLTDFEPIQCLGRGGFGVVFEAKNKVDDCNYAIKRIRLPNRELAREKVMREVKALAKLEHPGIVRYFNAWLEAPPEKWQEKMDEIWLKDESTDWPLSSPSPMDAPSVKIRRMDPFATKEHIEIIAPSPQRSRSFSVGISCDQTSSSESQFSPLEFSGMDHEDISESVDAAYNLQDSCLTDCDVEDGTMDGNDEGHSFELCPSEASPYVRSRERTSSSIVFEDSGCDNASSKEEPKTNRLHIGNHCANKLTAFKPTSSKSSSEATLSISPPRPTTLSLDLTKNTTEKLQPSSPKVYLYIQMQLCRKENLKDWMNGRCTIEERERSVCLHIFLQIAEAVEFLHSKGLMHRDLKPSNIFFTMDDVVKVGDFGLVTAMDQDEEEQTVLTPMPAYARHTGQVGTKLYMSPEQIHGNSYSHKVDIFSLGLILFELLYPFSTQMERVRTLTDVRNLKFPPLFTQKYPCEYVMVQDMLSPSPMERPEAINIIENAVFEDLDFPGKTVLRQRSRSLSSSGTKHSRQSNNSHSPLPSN

[2] = biological target: T1, Eukaryotic translation initiation factor 2-alpha kinase 3; experiment: Dose response cell-based high-throughput screening assay to measure PERK inhibition. [Related pubchem assays: 1416 ]; assay type: functional
[3] = Luminescence Cell-Based Dose Confirmation to Identify Activators of 5'UTR Stem-Loop Driven Alpha-Synuclein mRNA Translation in H4 Neuroglioblastoma Cells. [Related pubchem assays: 1829 (Project Summary), 1814 (Primary HTS)]; assay type: functional
[4] = Luminescence Cell-Based Dose Response to Identify Activators of 5'UTR Stem-Loop Driven Prion Protein mRNA Translation in H4-C Neuroglioblastoma Cells. [Related pubchem assays: 1829 (Project Summary), 1814 (Primary HTS)]; assay type: functional
H4 = experiment: Luminescence Cell-Based Dose Response HTS to Identify Activators of 5'UTR Stem-Loop Driven Prion Protein mRNA Translation in H4 Neuroglioblastoma Cells. [Related pubchem assays: 1829 (Project Summary), 1814 (Primary HTS)]; assay type: functional; details: Homo sapiens
HeLa = experiment: ATP-based viability loss in HeLa cells – cell-based, CellTiter-Glo luminescence, cherry-pick samples, cytotoxicity control for MITF activator project, dose response (AID 540259); assay type: functional; details: Homo sapiens
[5] = Luminescence Cell-Based Dose Response HTS to Identify Activators of Luciferase Translation or Activity in H4 […] Cells. [Related pubchem assays: 1829 (Project Summary), 1814 (Primary HTS)]; assay type: functional
[6] = Luminescence Cell-Based Dose Response to Identify Activators of Luciferase Translation or Activity in H4-C Neuroglioblastoma Cells. [Related pubchem assays: 1829 (Project Summary), 1814 (Primary HTS)]; assay type: functional
[7] = Luminescence Cell-Based Dose Confirmation HTS to Identify Activators of 5'UTR Stem-Loop Driven Alpha-Synuclein mRNA Translation in H4 Neuroglioblastoma Cells. [Related pubchem assays: 1829 (Project Summary), 1814 (Primary HTS)]; assay type: functional
Fatty acid synthase [8] = biological target: T2, Fatty acid synthase (Homo sapiens, UniProt P49327); experiment: inhibition of human FAS-TE enzyme activity – biochemical, endpoint fluorescence intensity, uHTS hits, dose response (AID 624327); assay type: functional;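 further: fluorescence from hydrolysis of an O-methyl fluorescein acyl ester substrate by the enzyme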
Fatty acid synthase [9] = biological target: T2, Fatty acid synthase; experiment: inhibition of human FAS-TE enzyme activity – biochemical, kinetic fluorescence intensity, dose response (AID 624326); assay type: functional;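 further: rate of fluorescence rise from hydrolysis of a fluorogenic O-methyl fluorescein ester substrate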
[10] = NIH3T3 cell viability loss – ATP luminescence, mouse fibroblasts, counter-screen, dose response (AID 2010); assay type: functional, cell-based;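 further: cells exposed to compound for about 90 hours before reading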
[11] = Trypanosoma cruzi growth suppression in host cells – NIH3T3 host cells, beta-gal luminescence, confirmation (AID 2044); assay type: functional, cell-based;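 further: intracellular parasites grown in NIH/3T3 mouse fibroblasts as host cells; luminescent beta-galactosidase reporter signal from transgenic T. cruzi replicating inside host cells; inhibitors lower the luminescence signal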
[12] = biological target: Peroxisome proliferator-activated receptor gamma/Nuclear receptor coactivator 1 (Homo sapiens, UniProt P37231); assay type: functional;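 further: agonist potency as compounds enhance coactivator SRC-1 recruitment to PPARgamma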
Peroxisome proliferator-activated receptor gamma/Nuclear receptor coactivator 1, sequence (P37231 whole entry): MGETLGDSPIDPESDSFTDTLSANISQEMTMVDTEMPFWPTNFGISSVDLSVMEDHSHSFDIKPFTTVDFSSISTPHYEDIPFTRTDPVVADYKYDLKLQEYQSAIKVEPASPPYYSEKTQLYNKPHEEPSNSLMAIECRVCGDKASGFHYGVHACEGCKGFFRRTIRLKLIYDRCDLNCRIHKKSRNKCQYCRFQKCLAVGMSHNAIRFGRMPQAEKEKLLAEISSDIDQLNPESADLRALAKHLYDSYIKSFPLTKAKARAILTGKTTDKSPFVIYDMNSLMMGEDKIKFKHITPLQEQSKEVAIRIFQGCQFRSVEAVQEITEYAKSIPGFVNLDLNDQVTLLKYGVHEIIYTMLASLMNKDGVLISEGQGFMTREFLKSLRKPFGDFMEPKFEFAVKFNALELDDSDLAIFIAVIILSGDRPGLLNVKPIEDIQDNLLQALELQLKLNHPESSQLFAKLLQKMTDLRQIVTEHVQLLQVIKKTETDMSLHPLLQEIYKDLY
Peroxisome proliferator-activated receptor gamma/Nuclear receptor coactivator 1, sequence (Q15788 whole entry, further chain): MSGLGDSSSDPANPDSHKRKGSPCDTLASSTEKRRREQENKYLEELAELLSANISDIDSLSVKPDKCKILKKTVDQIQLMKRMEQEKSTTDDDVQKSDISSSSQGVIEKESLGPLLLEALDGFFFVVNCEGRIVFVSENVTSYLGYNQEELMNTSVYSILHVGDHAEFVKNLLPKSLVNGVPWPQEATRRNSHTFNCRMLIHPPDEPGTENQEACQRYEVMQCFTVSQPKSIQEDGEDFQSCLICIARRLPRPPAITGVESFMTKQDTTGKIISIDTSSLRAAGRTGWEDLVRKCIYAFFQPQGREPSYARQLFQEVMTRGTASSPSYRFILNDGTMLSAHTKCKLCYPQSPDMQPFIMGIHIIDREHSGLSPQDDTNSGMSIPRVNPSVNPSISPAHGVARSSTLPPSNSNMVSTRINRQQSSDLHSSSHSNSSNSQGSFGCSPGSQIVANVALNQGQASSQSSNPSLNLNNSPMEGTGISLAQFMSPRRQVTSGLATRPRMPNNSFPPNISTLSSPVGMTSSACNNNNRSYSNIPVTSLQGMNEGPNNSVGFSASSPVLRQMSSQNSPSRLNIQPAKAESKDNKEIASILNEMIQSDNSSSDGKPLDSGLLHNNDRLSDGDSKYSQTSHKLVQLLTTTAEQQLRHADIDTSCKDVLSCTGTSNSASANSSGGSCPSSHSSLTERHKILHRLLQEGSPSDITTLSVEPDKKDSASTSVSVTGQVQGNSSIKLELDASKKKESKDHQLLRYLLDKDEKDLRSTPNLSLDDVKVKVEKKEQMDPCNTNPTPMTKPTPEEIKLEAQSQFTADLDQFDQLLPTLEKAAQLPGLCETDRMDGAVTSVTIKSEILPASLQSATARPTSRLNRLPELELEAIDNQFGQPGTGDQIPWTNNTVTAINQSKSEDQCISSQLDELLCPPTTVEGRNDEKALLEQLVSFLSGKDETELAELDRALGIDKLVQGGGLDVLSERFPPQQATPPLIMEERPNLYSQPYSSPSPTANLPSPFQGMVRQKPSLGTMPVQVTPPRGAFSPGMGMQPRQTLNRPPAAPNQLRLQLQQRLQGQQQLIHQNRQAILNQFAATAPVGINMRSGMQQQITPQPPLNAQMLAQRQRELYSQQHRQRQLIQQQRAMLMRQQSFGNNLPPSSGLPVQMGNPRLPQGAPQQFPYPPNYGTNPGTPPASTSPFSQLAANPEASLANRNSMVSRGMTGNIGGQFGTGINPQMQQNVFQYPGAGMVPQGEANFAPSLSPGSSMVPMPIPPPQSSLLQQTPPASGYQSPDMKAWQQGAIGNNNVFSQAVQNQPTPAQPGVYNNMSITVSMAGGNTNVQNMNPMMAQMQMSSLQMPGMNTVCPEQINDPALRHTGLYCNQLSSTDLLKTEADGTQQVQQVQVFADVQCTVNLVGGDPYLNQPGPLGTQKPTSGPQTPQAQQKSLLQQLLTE

[13] = biological target: Peroxisome proliferator-activated receptor gamma/Nuclear receptor coactivator 3 (Homo sapiens, UniProt P37231); assay type: functional;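 further: agonist potency for raising coactivator recruitment to the receptor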
[14] = biological target: Peroxisome proliferator-activated receptor gamma/Nuclear receptor coactivator 2 (Homo sapiens, UniProt P37231); assay type: functional;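 further: agonist potency for raising coactivator recruitment to the receptor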
Peroxisome proliferator-activated receptor gamma/Nuclear receptor coactivator 2, sequence (P37231 whole entry): as the sequence (P37231 whole entry) above
Peroxisome proliferator-activated receptor gamma/Nuclear receptor coactivator 2, sequence (Q15596 whole entry, further chain): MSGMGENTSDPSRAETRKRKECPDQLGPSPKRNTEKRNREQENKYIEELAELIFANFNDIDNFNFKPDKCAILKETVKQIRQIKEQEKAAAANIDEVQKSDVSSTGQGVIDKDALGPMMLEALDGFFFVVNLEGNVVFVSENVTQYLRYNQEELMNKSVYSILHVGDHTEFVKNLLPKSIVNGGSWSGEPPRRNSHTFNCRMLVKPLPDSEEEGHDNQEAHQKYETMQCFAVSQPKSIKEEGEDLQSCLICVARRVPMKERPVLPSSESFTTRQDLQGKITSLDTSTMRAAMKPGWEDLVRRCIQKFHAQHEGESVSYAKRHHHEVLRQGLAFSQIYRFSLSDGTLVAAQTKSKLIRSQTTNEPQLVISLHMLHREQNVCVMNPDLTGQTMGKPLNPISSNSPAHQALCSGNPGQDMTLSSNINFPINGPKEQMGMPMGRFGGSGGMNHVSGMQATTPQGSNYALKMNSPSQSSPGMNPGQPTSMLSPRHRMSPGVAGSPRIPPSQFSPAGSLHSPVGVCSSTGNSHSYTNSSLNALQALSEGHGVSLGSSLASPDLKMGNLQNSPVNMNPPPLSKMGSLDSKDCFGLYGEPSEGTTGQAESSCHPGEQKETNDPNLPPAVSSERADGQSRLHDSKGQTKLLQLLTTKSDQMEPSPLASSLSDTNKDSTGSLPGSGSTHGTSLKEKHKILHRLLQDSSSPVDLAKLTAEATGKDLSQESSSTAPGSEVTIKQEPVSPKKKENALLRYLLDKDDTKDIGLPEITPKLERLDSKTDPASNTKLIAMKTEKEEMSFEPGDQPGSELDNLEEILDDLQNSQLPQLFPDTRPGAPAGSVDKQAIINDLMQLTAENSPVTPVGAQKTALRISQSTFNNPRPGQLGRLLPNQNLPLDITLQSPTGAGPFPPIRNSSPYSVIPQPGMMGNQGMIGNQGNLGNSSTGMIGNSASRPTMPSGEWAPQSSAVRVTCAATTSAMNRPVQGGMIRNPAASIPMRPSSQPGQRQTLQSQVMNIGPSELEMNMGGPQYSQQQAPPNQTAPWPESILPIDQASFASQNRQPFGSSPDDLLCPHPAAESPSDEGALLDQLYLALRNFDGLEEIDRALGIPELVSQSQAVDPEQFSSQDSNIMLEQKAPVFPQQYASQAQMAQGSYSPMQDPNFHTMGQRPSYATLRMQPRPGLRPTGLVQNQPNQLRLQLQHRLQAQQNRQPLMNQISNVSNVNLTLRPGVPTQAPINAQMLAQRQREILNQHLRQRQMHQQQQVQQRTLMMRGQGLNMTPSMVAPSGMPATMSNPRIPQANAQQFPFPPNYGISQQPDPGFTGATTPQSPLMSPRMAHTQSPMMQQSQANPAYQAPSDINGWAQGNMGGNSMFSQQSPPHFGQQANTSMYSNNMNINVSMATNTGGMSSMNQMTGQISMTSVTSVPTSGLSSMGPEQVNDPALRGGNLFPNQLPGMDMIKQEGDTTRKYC

Albumin = Albumin (Bos taurus, UniProt P02769); experiment: Counterscreen for inhibitors of T-cell receptor (TCR)-CD3 interaction: Fluorescence-based biochemical high throughput dose response assay to identify inhibitors of T-cell receptor (TCR)-CD3 interaction using a TAMRA-labeled BSA probe.; assay type: functional
Albumin, sequence (P02769 whole entry): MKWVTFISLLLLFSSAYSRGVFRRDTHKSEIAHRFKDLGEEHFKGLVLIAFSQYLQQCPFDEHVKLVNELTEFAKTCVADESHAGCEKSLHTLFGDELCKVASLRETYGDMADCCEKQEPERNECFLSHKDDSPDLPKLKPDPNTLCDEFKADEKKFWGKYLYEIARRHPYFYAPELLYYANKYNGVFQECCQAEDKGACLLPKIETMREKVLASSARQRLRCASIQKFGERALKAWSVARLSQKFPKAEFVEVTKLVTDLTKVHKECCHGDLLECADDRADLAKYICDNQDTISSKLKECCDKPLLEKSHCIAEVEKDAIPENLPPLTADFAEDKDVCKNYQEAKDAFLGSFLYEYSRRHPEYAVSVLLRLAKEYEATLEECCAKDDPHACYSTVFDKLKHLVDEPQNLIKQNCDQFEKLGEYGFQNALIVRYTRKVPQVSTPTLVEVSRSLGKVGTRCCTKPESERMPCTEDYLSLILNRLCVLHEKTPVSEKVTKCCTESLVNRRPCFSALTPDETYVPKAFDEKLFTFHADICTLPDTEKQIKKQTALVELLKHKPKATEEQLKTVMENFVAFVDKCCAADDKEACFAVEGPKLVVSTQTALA

INS1 = experiment: INS-1E survival protection against cytokine death – cell-based, luminescence, retest, dose response (AID 449756); assay type: functional; details: Rattus norvegicus;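 further: cell death triggered by IL-1 beta plus TNF-alpha plus IFN-gamma mixture; protective hits raise ATP signal compared with cytokine alone wells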
[15] = viability loss of HPDE-C7K cells – cell-based, fluorescence, HTS, primary screen (AID 431); assay type: functional; details: Homo sapiens
[16] = HPDE-C7 pancreatic duct cell viability loss – fluorescence, HTS (AID 430); assay type: functional, cell-based; details: Homo sapiens
[17] = NIH-3T3 fibroblast cytotoxicity, dose response, cytotoxicity control, cell-based, fluorescence, Alamar Blue, secondary assay (AID 2327); assay type: functional;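 further: NIH-3T3 mouse fibroblasts cultured with fluconazole at 8 µg/mL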
[18] = biological target: T3, COUP transcription factor 2 (Homo sapiens, UniProt P24468); experiment: Luminescence-based cell-based high throughput dose response assay to identify inhibitors of COUP-TFII (NR2F2).; assay type: functional;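 further: HEK293 cells transiently cotransfected with COUP-TFII expression vector and reporter; luciferase reporter luminescence driven by COUP-TFII from the pX2-168 reporter plasmid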
T3 sequence (P24468 whole entry): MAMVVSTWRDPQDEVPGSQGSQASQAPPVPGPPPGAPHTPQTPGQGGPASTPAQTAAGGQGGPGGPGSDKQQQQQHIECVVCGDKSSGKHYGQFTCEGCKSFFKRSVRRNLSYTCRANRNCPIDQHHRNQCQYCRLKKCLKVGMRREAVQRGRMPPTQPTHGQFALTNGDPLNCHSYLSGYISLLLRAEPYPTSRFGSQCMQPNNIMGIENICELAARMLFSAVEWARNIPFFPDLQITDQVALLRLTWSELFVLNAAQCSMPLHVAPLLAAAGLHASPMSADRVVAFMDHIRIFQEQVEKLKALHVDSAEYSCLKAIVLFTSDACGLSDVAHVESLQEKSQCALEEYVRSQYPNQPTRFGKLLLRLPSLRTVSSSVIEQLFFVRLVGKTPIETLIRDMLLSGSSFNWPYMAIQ

[19] = biological target: T4, DNA repair protein RAD52 homolog (Homo sapiens, UniProt P43351); assay type: functional, biochemical
T4 sequence (P43351 whole entry): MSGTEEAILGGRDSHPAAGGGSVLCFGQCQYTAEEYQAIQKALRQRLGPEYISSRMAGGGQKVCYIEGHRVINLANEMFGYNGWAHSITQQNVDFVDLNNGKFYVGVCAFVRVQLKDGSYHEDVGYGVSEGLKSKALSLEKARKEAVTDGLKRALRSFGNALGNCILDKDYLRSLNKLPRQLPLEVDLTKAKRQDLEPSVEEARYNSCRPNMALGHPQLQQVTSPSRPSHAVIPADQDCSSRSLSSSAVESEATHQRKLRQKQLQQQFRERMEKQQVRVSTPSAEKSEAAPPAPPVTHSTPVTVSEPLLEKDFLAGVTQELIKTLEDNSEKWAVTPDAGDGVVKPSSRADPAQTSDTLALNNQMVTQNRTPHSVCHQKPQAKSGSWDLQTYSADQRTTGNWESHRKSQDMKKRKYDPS

[20] = fluconazole-exposed Candida albicans growth modulators – fluorescence, retest, confirmation (AID 2467); assay type: functional, cell-based
[21] = biological target: NAD-dependent protein deacylase sirtuin-5, mitochondrial (Homo sapiens, UniProt Q9NXA8); experiment: sirtuin-5 deacylation blockers, concentration series – biochemical, fluorescence imaging, cherry-pick, set 5, dose response (AID 720591);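 further: desuccinylation of succinyl peptide AMC substrate read as fluorescence after trypsin release; potency of inhibitors that lower fluorescence and may act on trypsin instead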
NAD-dependent protein deacylase sirtuin-5, mitochondrial, sequence (Q9NXA8 whole entry): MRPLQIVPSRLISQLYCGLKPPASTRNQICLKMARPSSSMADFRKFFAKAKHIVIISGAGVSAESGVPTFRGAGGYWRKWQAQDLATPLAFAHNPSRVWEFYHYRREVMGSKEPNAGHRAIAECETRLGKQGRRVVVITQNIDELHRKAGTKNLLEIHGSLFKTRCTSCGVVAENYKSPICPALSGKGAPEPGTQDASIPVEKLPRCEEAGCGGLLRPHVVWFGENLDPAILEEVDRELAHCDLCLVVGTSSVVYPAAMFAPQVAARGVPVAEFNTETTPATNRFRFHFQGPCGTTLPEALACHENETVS

[22] = biological target: T5, Zinc finger protein mex-5 (Caenorhabditis elegans, UniProt Q9XUB2); experiment: potency of MEX-5 RNA-binding blockers – biochemical, C. elegans, fluorescence polarization, dose response (AID 1960)
T5 sequence (Q9XUB2 whole entry): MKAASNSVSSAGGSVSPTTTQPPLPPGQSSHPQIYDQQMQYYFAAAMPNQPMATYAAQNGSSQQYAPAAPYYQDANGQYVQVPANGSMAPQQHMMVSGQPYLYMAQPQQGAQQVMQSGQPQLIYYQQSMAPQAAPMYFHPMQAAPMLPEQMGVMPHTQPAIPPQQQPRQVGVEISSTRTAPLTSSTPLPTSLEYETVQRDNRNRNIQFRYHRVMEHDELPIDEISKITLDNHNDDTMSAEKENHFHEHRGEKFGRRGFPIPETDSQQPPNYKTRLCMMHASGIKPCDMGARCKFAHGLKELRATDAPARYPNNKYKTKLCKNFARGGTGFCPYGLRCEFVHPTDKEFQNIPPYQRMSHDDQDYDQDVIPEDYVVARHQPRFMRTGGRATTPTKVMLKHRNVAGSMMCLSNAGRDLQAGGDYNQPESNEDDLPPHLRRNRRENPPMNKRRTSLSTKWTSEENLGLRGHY

[23] = biological target: T6, RNA-binding protein pos-1 (Caenorhabditis elegans, UniProt G5EF15); experiment: disruptors of C. elegans POS-1 RNA interaction – biochemical, fluorescence polarization, dose response (AID 1964);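 further: purified POS-1 fused to maltose binding protein made in E. coli; potency of compounds blocking POS-1 binding to fluorescent RNA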
T6 sequence (G5EF15 whole entry): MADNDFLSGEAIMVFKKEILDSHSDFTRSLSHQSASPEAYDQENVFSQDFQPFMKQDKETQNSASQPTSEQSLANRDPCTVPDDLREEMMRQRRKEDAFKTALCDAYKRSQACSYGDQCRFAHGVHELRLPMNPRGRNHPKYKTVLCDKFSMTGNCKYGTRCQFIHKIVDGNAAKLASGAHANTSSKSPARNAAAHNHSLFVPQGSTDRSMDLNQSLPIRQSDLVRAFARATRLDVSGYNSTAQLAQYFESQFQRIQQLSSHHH

In the case of `COc1ccc(C(=O)Cc2ccccc2)cc1OC`, the EC50 [1] is reported as > 55.7 µM (not active) and the EC50 [2] is reported as > 55.7 µM (not active).
For `COc1cccc(N(C(=O)c2nc3nccc(C)n3n2)c2nc3ccccc3s2)c1`, the EC50 [3] was 464 nM (active), the EC50 [4] was 248 nM (active) and the EC50 (H4) was 166 nM (active). The AC50 (HeLa) was 43.5 µM (active), the EC50 [5] was 192 nM (active) and the EC50 [6] was 338 nM (active). The EC50 [7] was 122 nM (active).
With `O=C(NCCCCc1ccccc1)c1cc([N+](=O)[O-])cc([N+](=O)[O-])c1` the IC50 (Fatty acid synthase [8]) was 12.4 µM (active), the IC50 (Fatty acid synthase [9]) was 8 µM (active) and the EC50 [10] was > 60 µM (not active). For the same compound, the EC50 (cells) was 258 nM (active) and the EC50 [11] was < 100 nM (active).
For `CN(C)S(=O)(=O)c1cccc(NC(=O)COC(=O)c2cc(-c3cccc(Br)c3)nc3ccccc23)c1`, the EC50 [12] was 19.1 µM (not active), the EC50 [13] was 21.1 µM (not active) and the EC50 [14] was 18.1 µM (not active). The IC50 (Albumin) was > 94.1 µM (inactive).
For `Cn1nc([N+](=O)[O-])nc1Sc1cccc2cccnc12`, the AC50 (INS1) was 2.59 µM (active), the EC50 [10] was > 60 µM (not active) and the EC50 (cells) was 115 nM (active). For the same compound, the EC50 [11] was < 100 nM (active).
With `COc1ccc2c(COC(=O)c3[nH]nc4ccccc34)cc(=O)oc2c1` the EC50 [3] was 352 nM (active), the EC50 [4] was 752 nM (active) and the EC50 (H4) was 409 nM (active). The EC50 [5] was < 100 nM (inconclusive) and the EC50 [6] was 684 nM (active).
For `Cc1nnc(SCC(=O)NC2CCCC2)s1`, the EC50 [1] was > 55.7 µM (not active) and the EC50 [2] was > 55.7 µM (not active).
In the case of `Cc1ccc(OCc2nnc(SCC(=O)c3ccccc3)n2Cc2ccco2)cc1`, the EC50 [15] is reported as > 20 µM (not active) and the EC50 [16] is reported as > 20 µM (not active).
For `CC1=CC(=Cc2sc3ccccc3[n+]2C)C=C(C)O1.[O-][Cl+3]([O-])([O-])[O-]`, the EC50 [17] was > 160 µM (inactive), the IC50 [18] was 8.76 µM (active) and the AC50 [19] was 5.78 µM (active). For the same compound, the EC50 [20] was 491 nM (active), the EC50 [10] was 32.3 µM (active) and the EC50 (cells) was 9 nM (active). The EC50 [11] was < 100 nM (active).
For `COc1ccccc1C(=O)C1CCCN(C(=O)CSc2ccccn2)C1` (stereo unspecified), the EC50 [12] was > 79.4 µM (not active), the EC50 [13] was > 79.4 µM (not active) and the EC50 [14] was > 79.4 µM (not active).
In the case of `O=C(O)c1cc(O)c2c(c1)C(=O)c1cccc(O)c1C2=O` [RHEIN], the EC50 [15] is reported as 5.19 µM (active), the AC50 [21] is reported as > 30 µM (inactive) and the EC50 [22] is reported as 21.6 µM (active). For the same compound, the EC50 [23] was 29.2 µM (active) and the EC50 [16] was 19.8 µM (active).
